Data: patent US20160243011A1, “Formulations Comprising Idebenone, N-Acetyl-S-Farnesyl-L-Cysteine and Ergothioneine and Uses Thereof” (ELIZABETH ARDEN, INC., priority 2012, published 2016)

Assays:
[1] = Radical scavenging capacity (oxidation of ABTS by metmyoglobin); assay type: biochemical; conditions: for EPF Score: Example 3, scores: 10^−3 M=5, 10^−4 M=15, 10^−5 M=20; for Effective and oxidant conc: lowest effective concentration, OD 750 nm
Source text: This assay analyzed the overall antioxidant capacity of test ingredients for the ability to inhibit the oxidation of 2,2′-azino-bis(3-ethylbenzothiazoline-6-sulphonic acid) (ABTS). to ABTS.^+ by metmyoglobin. The testing involved the suppression of optical density (OD) at 750 nm to a degree that is proportional to an effective oxidation inhibition. The EPF scoring system was based on the lowest effective concentration as previously described by MacDaniel et al., 2005 and scores were assigned as follows: 10^−3 M=5; 10^−4 M=15; 10^−5 M=20.

TNFα = assay: UVB induced TNFα release in NHEKs (ELISA); assay type: cell-based, Human; conditions: for EPF Score: Example 8 (8B), TNFα; for inhibition at 1 µM: Homo sapiens, light or radiation study, read-out: TNFα (% inh)
Experimental: (§1) In order to evaluate the impact of UV-induced inflammation in human skin, primary cell monolayer cultures were exposed to different types of UV radiation, i.e. UVB and UVA. Primary Human Dermal Fibroblasts (HDFs) were irradiated with UVA (350 nm) and Normal Human Epidermal Keratinocytes cells (NHEKs) with UVB (305 nm). HDFs were cultured in Dulbecco's Modified Eagle Medium (DMEM) basal medium (Life Technologies, Grand Island, N.Y.), supplemented with 10% v/v fetal bovine serum (FBS), (referred to as supplemented media) at 37° C. with 5% CO2 NHEKs were cultured in Epilife® basal medium (Life Technologies, Grand Island, N.Y.), supplemented with 60 μM calcium, 0.2% v/v bovine pituitary extract (BPE), 5 μg/ml bovine insulin, 0.18 μg/ml hydrocortisone, 5 μg/ml bovine transferrin, 5 μg/ml, 0.2 ng/ml human epidermal growth factor (referred to as supplemented media) at 37° C. with 5% CO2.
(§2) In order to avoid possible immunomodulating effects of these agents during compound treatments, cells were kept in DMEM or Epilife® basal medium without growth supplements (referred to as depleted media). Cells were plated at a concentration of 3.8×10^4 cells/well in supplemented media in 24-well plates. After cells were allowed to adhere (24 hours), media was changed to depleted media.
(§3) For “blend” testing, a formulation of idebenone, Arazine™ and ergothioneine (1:1:1 molar ratio) was prepared before mixing to medium. Six hours after pre-treatments, to induce a pro-inflammatory response, pre-treatment media was removed and replaced with phosphate-buffered saline (PBS).
(§4) Immediately after UV irradiation, cells were placed in fresh depleted medium for 24 hours. Cell cultures were examined for viability by the reduction of 3-(4,5-dimethylthiazol-2-yl)-5-(3-carboxymethoxyphenyl)-2-(4-sulfophenyl)-2H-tetrazolium (MTS assay; Promega, Madison, Wis.) to determine the percentage of viable cells after compound and UV irradiation. Media supernatants were harvested from non-irradiated and UV irradiated cells and assayed by enzyme-linked immunosorbent assays (ELISA) for the stimulated release of pro-inflammatory mediators. NHEKs were assayed for concentrations of Interleukin-6 (IL-6) and Tumor Necrosis Factor-alpha (TNF-alpha) using appropriate protein standards (BD Biosciences; San Jose, Calif.). HDFs were assayed for concentrations of IL-6 (BD Biosciences) or pro-Matrix Metalloproteinase-1 (pro-MMP-1) using appropriate protein standards (R&D Systems; Minneapolis, Minn.).
(§5) Control groups contained non-irradiated cells. Twenty four hours later, cell medium were assayed for the presence of pro-inflammatory mediators by ELISA.
(§6) To test these anti-oxidants for anti-inflammatory properties, primary Human Epidermal Keratinocytes (NHEKs) were cultured in the presence of each ingredient for 6 hours. Ingredients were then removed and cells were irradiated with 25 mJ/cm2 UVB. Media supernatants were collected after 24 hours and analyzed by ELISA for IL-6 and TNF-α. All ingredients were tested at 1 μM.

[2] = Total Environmental Protection Factor (EPF) score; conditions: 180 point scoring system (20 points for each endpoint measured)
IL-6 [3] = assay: UVA induced IL-6 production in HDFs (ELISA); assay type: cell-based, Human; conditions: for EPF Score: Example 9 (9A), IL-6; for inhibition at 1 µM: Homo sapiens, light or radiation study, read-out: IL-6 (% inh)
Experimental: as §1, §2, §3, §4
(§7) To test these anti-oxidants for anti-inflammatory and anti-aging properties, primary Human Dermal Fibroblasts (HDFs) were cultured in the presence of each ingredient for 6 hours. […] Media supernatants were collected after 24 hours and analyzed by ELISA for IL-6 and pro-MMP-1. All ingredients were tested at 1 μM.

Human LDL = assay: LDL pro-oxidative system measuring primary oxidation by-products; assay type: biochemical; conditions: 100 μM; for Lipid hydrogen-peroxide % protection: CuSO4 oxidative system, 24 hours; for EPF Score: Example 4
Experimental: Human LDL was oxidized with or without 0.1 mM materials under a CuSO4 oxidative system in Ham's F-10 medium.

pro-MMP-1 = assay: UVA induced pro-MMP-1 production in HDFs (ELISA); assay type: cell-based, Human; conditions: for EPF Score: Example 9 (9B), MMP-1; for inhibition at 1 µM: Homo sapiens, light or radiation study, read-out: MMP-1 (% inh)
Experimental: as §1, §2, §3, §4, §7

EpiDerm™ inserts = assay: UVB induced sun burn cell (SBC) formation using EpiDerm; assay type: cell-based; conditions: for EPF Score: Example 7, 1 mM; for inhibition at 1000 µM: light or radiation study
Experimental: EpiDerm™ inserts (MatTek®) were topically treated in the presence of each test ingredient for 6 hours, after which they were removed, inserts were irradiated with 200 mJ/cm^2 UVB, and they fixed for H&E staining after 24 hours. The number of sun burn cells (SBCs) (white arrows) was counted. All compounds were tested at 1 mM.

IL-6 [4] = assay: UVB induced IL-6 release in NHEKs (ELISA); assay type: cell-based, Human; conditions: for EPF Score: Example 8 (8A), IL-6; for inhibition at 1 µM: Homo sapiens, light or radiation study, read-out: IL-6 (% inh)
Experimental: as §1, §2, §3, §4, §5, §6

[5] = tested on: Primary Human Epidermal Keratinocytes (NHEKs); assay: UVB induced DNA damage (thymine dimer formation); assay type: cell-based; conditions: 1 μM, 6 hours pre-treatment; UVB 200 mJ/cm^2
Experimental: Primary Human Epidermal Keratinocytes (NHEKs) were cultured in the presence of each test ingredient (1 μM) for 6 hours and later removed prior to UVB irradiation (200 mJ/cm^2). Cells were fixed after 1 hour and stained with anti-thymine dimer antibody. Positive rounded stained cells were counted using a fluorescence microscope.

Rat liver microsomes = assay: Microsome pro-oxidative system measuring secondary oxidation by-products (TBARS); assay type: biochemical; conditions: 100 μM; for Lipid MDA % protection: NADPH/ADP/Fe^3+ oxidative system, 24 hours; for EPF Score: Example 5
Experimental: Rat liver microsomes were oxidized with or without test ingredients at 0.1 mM using a NADPH/ADP/Fe^3+ oxidative system. Secondary oxidation products were quantified after 24 hours incubation by measuring MDA equivalents directly utilizing the production of Thiobarbituric acid-reactive substances (TBARS). Results are expressed as the change in optical density (OD) at 532 nm to a degree that is proportional to an effective oxidation inhibition based on 1,1,3,3-tetraethoxypropane as MDA-TBA production standard.

[6] = tested on: Primary Human Epidermal Keratinocytes (NHEKs); assay: UVB induced DNA damage (thymine dimer formation); assay type: cell-based; conditions: Example 6; 1 μM
[7] = 1 μM, 6 hours pre-treatment, NHEK, UVB 25 mJ/cm2, 24 hours
[8] = 1 μM, 6 hours pre-treatment, HDF, UVA 12.5 J/cm^2, 24 hours
[9] = 1 mM topical, 6 hours, UVB 200 mJ/cm^2, fixed after 24 hours
[10] = 6 hours pre-treatment, NHEK, UVB 25 mJ/cm2, 24 hours
[11] = 6 hours pre-treatment, HDF, UVA 12.5 J/cm^2, 24 hours

Row | Compound | EPF Score [1] | Effective and oxidant conc [1] [mM] | EPF Score (TNFα; 1 μM) | Total EPF score (TTL) [2] | EPF Score (IL-6 [3]; 1 μM) | Lipid hydrogen-peroxide % protection (Human LDL) [%] | EPF Score (Human LDL) | EPF Score (pro-MMP-1; 1 μM) | EPF Score (EpiDerm™ inserts) | EPF Score (IL-6 [4]; 1 μM) | DNA damage % protection [5] [%] | Lipid MDA % protection (Rat liver microsomes) [%] | EPF Score (Rat liver microsomes) | EPF Score [6] | inhibition at 1 µM (TNFα; [10]) [%] | inhibition at 1 µM (IL-6 [3]; [11]) [%] | inhibition at 1 µM (pro-MMP-1; [11]) [%] | inhibition at 1000 µM (EpiDerm™ inserts; [9]) [%] | inhibition at 1 µM (IL-6 [4]; [10]) [%] | also measured
1 | O=C(O)CCCC[C@@H]1CCSS1 (racemic) [Lipoic acid] | 5 | >3 | 14 | 94 | 13 | 5 | 2 | 16 | 8 | 14 | 13 | 25 | 7 | – | – | – | – | – | – | TNFα (% inh) (TNFα; [7]): 52%; IL-6 (% inh) (IL-6 [3]; [8]): 62%; MMP-1 (% inh) (pro-MMP-1; [8]): 80%; SBC % inhibition (EpiDerm™ inserts; [9]): 27%; IL-6 (% inh) (IL-6 [4]; [7]): 46%
2 | COc1cc(/C=C/C(=O)O)ccc1O [Ferulic acid] | 20 | 0.03 | 14 | 130 | 13 | 94 | 20 | 7 | 18 | 16 | 14 | 63 | 17 | 5 | 55 | 62 | 37 | 64 | 54 | –
3 | c1coc(CNc2ncnc3[nH]cnc23)c1 [Kinetin] | – | – | 10 | – | 15 | 1 | 1 | 2 | 18 | 16 | 14 | 0 | 0 | – | – | – | – | 62 | – | –
4 | COC1=C(OC)C(=O)C(C/C=C(\C)CC/C=C(\C)CC/C=C(\C)CC/C=C(\C)CC/C=C(\C)CC/C=C(\C)CC/C=C(\C)CC/C=C(\C)CC/C=C(\C)CCC=C(C)C)=C(C)C1=O [Ubiquinone] | 5 | >3 | 12 | 87 | 17 | 14 | 5 | 5 | 13 | 10 | 9 | 62 | 17 | 3 | 48 | 79 | 26 | 46 | 34 | –
